According to US20260092071A1, “COMPOUNDS AND COMPOSITIONS AS SMARCA2/4 DEGRADERS AND USES THEREOF” (REGENTS OF THE UNIVERSITY OF MICHIGAN, priority 2022, published 2026):

Legend:
SMARCA2 = SMARCA2 (Homo sapiens, UniProt P51531); assay: HiBit assay in engineered HT1080 CRISPR knock-in cell, 6 hrs (B series), SMARCA2; type: cell-based; conditions: 6 hrs incubation; for DC50: HT1080 CRISPR knock-in cells, read-out: SMARC A2 HT1080 HiBit DC50; for Dmax: HT-1080, HT1080 CRISPR knock-in cells, read-out: SMARC A2 HT1080 HiBit Dmax (%)
SMARCA2, sequence (P51531 whole entry): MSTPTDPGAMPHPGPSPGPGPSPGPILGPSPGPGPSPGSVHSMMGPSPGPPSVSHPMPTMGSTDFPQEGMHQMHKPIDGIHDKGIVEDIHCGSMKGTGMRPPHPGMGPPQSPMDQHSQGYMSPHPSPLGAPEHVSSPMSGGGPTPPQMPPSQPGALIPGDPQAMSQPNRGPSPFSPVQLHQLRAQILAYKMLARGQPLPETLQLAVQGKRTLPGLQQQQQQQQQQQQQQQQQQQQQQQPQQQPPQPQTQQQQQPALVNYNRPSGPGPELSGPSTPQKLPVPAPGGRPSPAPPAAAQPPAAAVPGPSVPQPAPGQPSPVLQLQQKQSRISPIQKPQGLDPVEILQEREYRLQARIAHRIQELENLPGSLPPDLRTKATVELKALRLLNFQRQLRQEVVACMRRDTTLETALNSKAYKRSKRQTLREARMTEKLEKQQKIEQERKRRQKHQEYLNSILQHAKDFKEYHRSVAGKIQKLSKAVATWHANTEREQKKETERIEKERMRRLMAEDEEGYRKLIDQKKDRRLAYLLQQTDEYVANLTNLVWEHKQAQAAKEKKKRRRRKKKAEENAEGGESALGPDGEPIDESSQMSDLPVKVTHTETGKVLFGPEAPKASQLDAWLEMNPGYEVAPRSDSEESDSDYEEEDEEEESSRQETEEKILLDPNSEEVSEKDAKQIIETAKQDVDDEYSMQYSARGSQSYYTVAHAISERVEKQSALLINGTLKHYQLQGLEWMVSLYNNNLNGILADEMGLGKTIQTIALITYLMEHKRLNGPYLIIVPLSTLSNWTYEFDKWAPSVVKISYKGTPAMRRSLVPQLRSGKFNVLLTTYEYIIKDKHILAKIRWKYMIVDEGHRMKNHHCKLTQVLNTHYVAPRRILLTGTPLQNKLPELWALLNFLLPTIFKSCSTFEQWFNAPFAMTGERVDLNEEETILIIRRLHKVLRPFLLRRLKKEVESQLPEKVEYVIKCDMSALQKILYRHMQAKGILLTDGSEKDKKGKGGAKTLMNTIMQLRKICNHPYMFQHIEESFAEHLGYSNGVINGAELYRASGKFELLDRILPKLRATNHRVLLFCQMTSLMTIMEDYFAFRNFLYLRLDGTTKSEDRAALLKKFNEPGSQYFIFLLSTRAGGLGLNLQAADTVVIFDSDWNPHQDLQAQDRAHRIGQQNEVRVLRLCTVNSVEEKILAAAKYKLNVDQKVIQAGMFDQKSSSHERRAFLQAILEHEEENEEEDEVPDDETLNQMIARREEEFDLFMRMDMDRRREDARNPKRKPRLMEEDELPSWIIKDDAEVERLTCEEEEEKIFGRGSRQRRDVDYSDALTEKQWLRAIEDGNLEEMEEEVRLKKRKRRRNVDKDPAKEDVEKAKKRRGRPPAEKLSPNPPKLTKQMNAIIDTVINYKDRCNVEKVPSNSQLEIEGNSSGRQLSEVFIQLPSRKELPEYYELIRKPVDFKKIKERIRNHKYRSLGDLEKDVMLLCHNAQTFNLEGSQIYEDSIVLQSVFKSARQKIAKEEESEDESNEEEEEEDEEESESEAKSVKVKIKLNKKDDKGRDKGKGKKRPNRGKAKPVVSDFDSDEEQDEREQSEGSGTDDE
Method in brief: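 Protein abundance is measured in HiBiT-tagged HT1080 CRISPR knock-in cells after a 6 hr compound treatment (0.1% DMSO) by lytic Nano-Glo HiBiT luminescence.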

SMARCA4 = SMARCA4 (Homo sapiens, UniProt P51532); assay: HiBit assay in engineered HT1080 CRISPR knock-in cell, 6 hrs (B series), SMARCA4; type: cell-based; conditions: 6 hrs incubation; for DC50: HT1080 CRISPR knock-in cells, read-out: SMARC A4 HT1080 HiBit DC50; for Dmax: HT-1080, HT1080 CRISPR knock-in cells, read-out: SMARC A4 HT1080 HiBit Dmax(%)
SMARCA4, sequence (P51532 whole entry): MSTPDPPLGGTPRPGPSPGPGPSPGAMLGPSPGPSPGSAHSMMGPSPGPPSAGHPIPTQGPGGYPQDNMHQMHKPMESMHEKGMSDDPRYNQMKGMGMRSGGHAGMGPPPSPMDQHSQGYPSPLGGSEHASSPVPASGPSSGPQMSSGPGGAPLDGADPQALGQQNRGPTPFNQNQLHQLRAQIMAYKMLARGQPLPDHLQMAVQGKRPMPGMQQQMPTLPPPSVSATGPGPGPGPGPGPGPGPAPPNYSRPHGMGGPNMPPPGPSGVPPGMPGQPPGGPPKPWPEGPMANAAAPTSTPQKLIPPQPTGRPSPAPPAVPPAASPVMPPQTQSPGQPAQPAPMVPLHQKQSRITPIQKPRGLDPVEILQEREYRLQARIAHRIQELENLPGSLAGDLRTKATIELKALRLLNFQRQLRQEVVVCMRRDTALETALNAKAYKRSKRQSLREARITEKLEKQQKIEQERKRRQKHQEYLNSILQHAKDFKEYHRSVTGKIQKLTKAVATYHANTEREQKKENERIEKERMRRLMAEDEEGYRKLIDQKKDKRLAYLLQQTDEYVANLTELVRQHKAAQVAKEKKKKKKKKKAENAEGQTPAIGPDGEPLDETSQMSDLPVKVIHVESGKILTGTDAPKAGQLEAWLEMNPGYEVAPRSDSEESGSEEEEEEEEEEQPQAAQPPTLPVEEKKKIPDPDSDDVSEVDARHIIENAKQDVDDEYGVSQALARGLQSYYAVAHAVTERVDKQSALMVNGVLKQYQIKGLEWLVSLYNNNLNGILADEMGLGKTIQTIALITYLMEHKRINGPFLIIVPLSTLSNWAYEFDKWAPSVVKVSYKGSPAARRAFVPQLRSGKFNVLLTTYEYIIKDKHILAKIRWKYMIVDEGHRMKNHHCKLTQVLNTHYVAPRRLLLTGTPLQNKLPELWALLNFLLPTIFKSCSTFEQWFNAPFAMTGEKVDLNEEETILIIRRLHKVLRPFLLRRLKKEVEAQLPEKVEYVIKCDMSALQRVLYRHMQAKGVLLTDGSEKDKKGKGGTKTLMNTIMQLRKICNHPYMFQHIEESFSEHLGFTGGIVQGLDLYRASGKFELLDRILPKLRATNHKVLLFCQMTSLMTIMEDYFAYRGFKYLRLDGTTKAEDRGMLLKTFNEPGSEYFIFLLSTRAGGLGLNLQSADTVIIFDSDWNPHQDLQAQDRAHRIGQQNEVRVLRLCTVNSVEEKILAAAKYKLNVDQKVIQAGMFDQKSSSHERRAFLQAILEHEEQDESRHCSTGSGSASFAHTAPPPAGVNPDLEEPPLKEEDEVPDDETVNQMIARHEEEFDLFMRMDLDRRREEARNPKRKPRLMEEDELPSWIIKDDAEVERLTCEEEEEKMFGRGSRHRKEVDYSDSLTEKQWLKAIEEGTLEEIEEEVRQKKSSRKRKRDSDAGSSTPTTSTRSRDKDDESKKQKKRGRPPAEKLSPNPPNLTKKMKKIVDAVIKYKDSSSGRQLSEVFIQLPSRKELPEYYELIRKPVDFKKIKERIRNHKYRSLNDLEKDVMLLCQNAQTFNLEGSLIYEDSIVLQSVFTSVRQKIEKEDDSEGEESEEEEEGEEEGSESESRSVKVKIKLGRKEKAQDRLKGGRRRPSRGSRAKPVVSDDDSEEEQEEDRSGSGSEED
Method in brief: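 Engineered HT1080 knock-in cells, 2000 cells/well, 6 hrs compound exposure, 37° C/5% CO2, 0.1% DMSO final. Lytic detection: LgBiT 1:100 plus HiBiT substrate 1:50 in lytic buffer, 10 min shake at RT, luminescence read.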

DC50 (SMARCA2) [nM]	Dmax (SMARCA2) [%]	DC50 (SMARCA4) [nM]	Dmax (SMARCA4) [%]	Structure (SMILES)
< 100	> 90	100 to 500	50 to 69	C[C@H](NC(=O)[C@@H]1C[C@@H](O)CN1C(=O)[C@@H](n1cc([C@H]2CC[C@H](CN3CCC(c4ccc5c(c4)-n4c(nc(=O)c6c(Cl)cccc64)C5(C)C)CC3)CC2)nn1)C(C)(C)C)c1ccc(-c2scnc2Cl)cc1 [Compound B117, (2S,4R)-1-((S)-2-(4-((1r,4S)-4-((4-(4-chloro-7,7-dimethyl-5-oxo-5,7-dihydroindolo[1,2-a]quinazolin-10-yl)piperidin-1-yl)methyl)cyclohexyl)-1H-1,2,3-triazol-1-yl)-3,3-dimethylbutanoyl)-N-((S)-1-(4-(4-chlorothiazol-5-yl)phenyl)ethyl)-4-hydroxypyrrolidine-2-carboxamide]
< 100	70 to 90	501 to 1000	50 to 69	Cc1ncsc1-c1ccc([C@H](CN2CCOCC2)NC(=O)[C@@H]2C[C@@H](O)CN2C(=O)[C@@H](n2cc([C@H]3CC[C@H](S(=O)(=O)N4CCC(c5ccc6c(c5)-n5c(nc(=O)c7c(Cl)cccc75)C65CCCCC5)CC4)CC3)nn2)C(C)(C)C)cc1 [Compound B118, (2S,4R)-1-((S)-2-(4-((1r,4S)-4-((4-(4′-chloro-5′-oxo-5′H-spiro[cyclohexane-1,7′-indolo[1,2-a]quinazolin]-10′-yl)piperidin-1-yl)sulfonyl)cyclohexyl)-1H-1,2,3-triazol-1-yl)-3,3-dimethylbutanoyl)-4-hydroxy-N-((R)-1-(4-(4-methylthiazol-5-yl)phenyl)-2-morpholinoethyl)pyrrolidine-2-carboxamide]
< 100	> 90	< 100	> 90	Cc1ncsc1-c1ccc([C@H](C)NC(=O)[C@@H]2C[C@@H](O)CN2C(=O)[C@@H](n2cc(-c3cccc(CN4CCC(c5ccc6c(c5)-n5c(nc(=O)c7c(Cl)cccc75)C6(C)C)CC4)c3)nn2)C(C)(C)C)cc1 [Compound B119, (2S,4R)-1-((S)-2-(4-(3-((4-(4-chloro-7,7-dimethyl-5-oxo-5,7-dihydroindolo[1,2-a]quinazolin-10-yl)piperidin-1-yl)methyl)phenyl)-1H-1,2,3-triazol-1-yl)-3,3-dimethylbutanoyl)-4-hydroxy-N-((S)-1-(4-(4-methylthiazol-5-yl)phenyl)ethyl)pyrrolidine-2-carboxamide]
< 100	> 90	< 100	70 to 90	Cc1ncsc1-c1ccc([C@H](C)NC(=O)[C@@H]2C[C@@H](O)CN2C(=O)[C@H](C(C)C)n2cc([C@H]3CC[C@H](CN4CCN(c5ccc6c(c5)-n5c(nc(=O)c7c(Cl)cccc75)C6(C)C)CC4)CC3)nn2)cc1 [Compound B120, (2S,4R)-1-((S)-2-(4-((1r,4S)-4-((4-(4-chloro-7,7-dimethyl-5-oxo-5,7-dihydroindolo[1,2-a]quinazolin-10-yl)piperazin-1-yl)methyl)cyclohexyl)-1H-1,2,3-triazol-1-yl)-3-methylbutanoyl)-4-hydroxy-N-((S)-1-(4-(4-methylthiazol-5-yl)phenyl)ethyl)pyrrolidine-2-carboxamide]
< 100	> 90	< 100	70 to 90	Cc1ncsc1-c1ccc([C@H](C)NC(=O)[C@@H]2C[C@@H](O)CN2C(=O)[C@@H](n2cc([C@H]3CC[C@H](CN4CCN(c5ccc6c(c5)-n5c(nc(=O)c7c(Cl)cccc75)C6(C)C)CC4)CC3)nn2)C(C)(C)C)cc1 [Compound B121, (2S,4R)-1-((S)-2-(4-((1r,4S)-4-((4-(4-chloro-7,7-dimethyl-5-oxo-5,7-dihydroindolo[1,2-a]quinazolin-10-yl)piperazin-1-yl)methyl)cyclohexyl)-1H-1,2,3-triazol-1-yl)-3,3-dimethylbutanoyl)-4-hydroxy-N-((S)-1-(4-(4-methylthiazol-5-yl)phenyl)ethyl)pyrrolidine-2-carboxamide]
